The values that follow come from US20250145633A1, “SUBSTITUTED FURANOPYRIMIDINE COMPOUNDS AS PDE1 INHIBITORS” (Dart NeuroScience, LLC, priority 2017, published 2025).

For one assay, the target named is human PDE1B enzyme (Homo sapiens (Human), UniProt Q01064). The experiment in a line: IMAP TR-FRET PDE1B enzymatic assay. It is filed as biochemical. The following applies: negative log of half-maximal molar inhibitory concentration; 200 nM FAM-cAMP; values given as bins. The protocol: PDE1B inhibition was determined by an IMAP TR-FRET assay. The IMAP TR-FRET PDE assay was optimized for concentration of enzyme, Calmodulin, cAMP or cGMP substrate, DMSO tolerance, and incubation time.
Into each well of a solid white 1536 well plate (Corning) was dispensed 250 pg full-length recombinant NH-terminal GST tagged human PDE1B enzyme (BPS Bioscience Cat #60011, San Diego, CA) in 2.5 μL IMAP BSA reaction buffer (Molecular Devices, Sunnyvale, CA) containing 10 U/ml Calmodulin and 2.5 mM CaCl2) (Sigma Aldrich.) After a brief centrifugation, 30 nL of compound was added by transfer from 1 mM stock in DMSO using a Kalypsys 1536 Pintool. Plates were incubated for 5 minutes at room temperature before dispensing 1.5 μL of 533 nM 5-carboxy fluorescein (FAM)-labeled cAMP (Molecular Devices, Sunnyvale, CA) for a final concentration of 200 nM. After a brief centrifugation, the plates were incubated for 30 minutes at room temperature. The assay was terminated by adding 5 μL IMAP binding reagent/Tb complex (Molecular Devices, Sunnyvale, CA) to each well.
Plates were incubated for 1 hour at room temperature and were read on a Viewlux multimode plate reader (Perkin Elmer). The instrument was set to excite using the DUG11 filter and measure using 490/10 nm and 520/10 nm filters. Ratios of acceptor and donor were then calculated.
For IC50 calculations, the values of % efficacy versus a series of compound concentrations were then plotted using non-linear regression analysis of sigmoidal dose-response curves generated with the equation Y=[B+(T−B)]/[1+10((Log EC50−X)×Hill Slope)], where Y=percent activity, B=minimum percent efficacy, T=maximum percent efficacy, X=logarithm of compound and Hill Slope=slope factor or Hill coefficient. The IC50 value was determined by the concentration causing a half-maximal percent efficacy.
A general note: Time-resolved FRET reads energy transfer from a long-lived donor to a nearby acceptor.
`Cc1oc2ncnc(NC3(C)CC3)c2c1C(=O)N1CCc2nc(C(C)(C)C)ncc2C1` [Example 41, 5-{2-tert-Butyl-5H,6H,7H,8H-pyrido[4,3-d]pyrimidine-6-carbonyl}-6-methyl-N-(1-methylcyclopropyl)furo[2,3-d]pyrimidin-4-amine]: the “PDE1b (pIC50)” value is recorded as above 8.

`Cc1oc2ncnc(NC3(C)CC3)c2c1C(=O)N1CCN(c2ccccn2)CC1` [Example 42, 6-Methyl-N-(1-methylcyclopropyl)-5-[4-(pyridin-2-yl)piperazine-1-carbonyl]furo[2,3-d]pyrimidin-4-amine]: the “PDE1b (pIC50)” value was above 8.

`Cc1oc2ncnc(NC3(C)CC3)c2c1C(=O)N1CCN(c2ccc(F)cn2)CC1` [Example 43, 5-[4-(5-Fluoropyridin-2-yl)piperazine-1-carbonyl]-6-methyl-N-(1-methylcyclopropyl)furo[2,3-d]pyrimidin-4-amine]: the “PDE1b (pIC50)” value is above 8. Still for that read-out and setting: the same measure for `Cc1ccc(N2CCN(C(=O)c3c(C)oc4ncnc(NC5(C)CC5)c34)CC2)nc1` [Example 44, 6-Methyl-N-(1-methylcyclopropyl)-5-[4-(5-methylpyridin-2-yl)piperazine-1-carbonyl]furo[2,3-d]pyrimidin-4-amine]: above 8; for `Cc1oc2ncnc(NC3(C)CC3)c2c1C(=O)N1CCN(c2ccc(C#N)cc2)CC1` [Example 47, 4-(4-{6-Methyl-4-[(1-methylcyclopropyl)amino]furo[2,3-d]pyrimidine-5-carbonyl}piperazin-1-yl)benzonitrile]: above 8; for `Cc1oc2ncnc(NC3(C)CC3)c2c1C(=O)NC(C)c1ccc(F)cn1` (centres unmarked) [Example 51, N-[1-(5-Fluoropyridin-2-yl)ethyl]-6-methyl-4-[(1-methylcyclopropyl)amino]furo[2,3-d]pyrimidine-5-carboxamide]: above 8. As for `COc1ccc(CNC(=O)c2c(C)oc3ncnc(NC4(C)CC4)c23)cn1` [Example 54, N-[(6-Methoxypyridin-3-yl)methyl]-6-methyl-4-[(1-methylcyclopropyl)amino]furo[2,3-d]pyrimidine-5-carboxamide], the “PDE1b (pIC50)” value was above 8. For `COc1ccc(CNC(=O)c2c(C)oc3ncnc(NC4(C)CC4)c23)nc1` [Example 55, N-[(5-Methoxypyridin-2-yl)methyl]-6-methyl-4-[(1-methylcyclopropyl)amino]furo[2,3-d]pyrimidine-5-carboxamide], the “PDE1b (pIC50)” value is given as above 8. Still for that read-out and setting: then `Cc1oc2ncnc(NC3(C)CC3)c2c1C(=O)N1CC(c2ccc(F)cc2)C1` [Example 56, 5-[3-(4-Fluorophenyl)azetidine-1-carbonyl]-6-methyl-N-(1-methylcyclopropyl)furo[2,3-d]pyrimidin-4-amine], with above 8; and `Cc1oc2ncnc(NC3(C)CC3)c2c1C(=O)N1CCC(c2ccc(F)cc2)C1` (centres unmarked) [Example 57, 5-[3-(4-Fluorophenyl)pyrrolidine-1-carbonyl]-6-methyl-N-(1-methylcyclopropyl)furo[2,3-d]pyrimidin-4-amine], with above 8. Take `Cc1oc2ncnc(NC3(C)CC3)c2c1C(=O)NCc1ccc(OC(F)F)cn1` [Example 59, N-{[5-(Difluoromethoxy)pyridin-2-yl]methyl}-6-methyl-4-[(1-methylcyclopropyl)amino]furo[2,3-d]pyrimidine-5-carboxamide]: the “PDE1b (pIC50)” value was above 8.

The same assay, now with this note: negative log of half-maximal molar inhibitory concentration; 200 nM FAM-cAMP; values given as bins; read-out: PDE1b (pIC50) (converted).
For the molecule `Cc1oc2ncnc(NC3(C)CC3)c2c1C(=O)N1CC(c2ccc(F)cn2)C1` [Example 31, 5-[3-(5-Fluoropyridin-2-yl)azetidine-1-carbonyl]-6-methyl-N-(1-methylcyclopropyl)furo[2,3-d]pyrimidin-4-amine], the IC50 was 10 to 100 nM.

As for `Cc1oc2ncnc(NC3(C)CC3)c2c1C(=O)N1CC(c2ccc(C#N)cc2)C1` [Example 32, 4-(1-{6-Methyl-4-[(1-methylcyclopropyl)amino]furo[2,3-d]pyrimidine-5-carbonyl}azetidin-3-yl)benzonitrile], the IC50 is 10 to 100 nM. The same measure, in the same setting: the same measure for `Cc1oc2ncnc(NC3(C)CC3)c2c1C(=O)N1CC(c2nccs2)C1` [Example 33, 6-Methyl-N-(1-methylcyclopropyl)-5-[3-(1,3-thiazol-2-yl)azetidine-1-carbonyl]furo[2,3-d]pyrimidin-4-amine]: 10 to 100 nM.

With `Cc1oc2ncnc(NC3(C)CC3)c2c1C(=O)Nc1ccc(-c2ccoc2)nc1` [Example 34, N-[6-(Furan-3-yl)pyridin-3-yl]-6-methyl-4-[(1-methylcyclopropyl)amino]furo[2,3-d]pyrimidine-5-carboxamide], the IC50 is 10 to 100 nM. For `Cc1oc2ncnc(NC3(C)CC3)c2c1C(=O)N1CCN(c2nccs2)CC1` [Example 35, 6-Methyl-N-(1-methylcyclopropyl)-5-[4-(1,3-thiazol-2-yl)piperazine-1-carbonyl]furo[2,3-d]pyrimidin-4-amine], the IC50 is 10 to 100 nM. Turning to `Cc1oc2ncnc(NC3(C)CC3)c2c1C(=O)N1Cc2cnc(C(F)(F)F)nc2C1` [Example 36, 6-Methyl-N-(1-methylcyclopropyl)-5-[2-(trifluoromethyl)-5H,6H,7H-pyrrolo[3,4-d]pyrimidine-6-carbonyl]furo[2,3-d]pyrimidin-4-amine], the IC50 is 100 to 1000 nM.

Turning to `Cc1oc2ncnc(NC3(C)CC3)c2c1C(=O)N1Cc2cnc(-c3ccc(F)cc3)nc2C1` [Example 37, 5-[2-(4-Fluorophenyl)-5H,6H,7H-pyrrolo[3,4-d]pyrimidine-6-carbonyl]-6-methyl-N-(1-methylcyclopropyl)furo[2,3-d]pyrimidin-4-amine], the IC50 is 100 to 1000 nM.

As to `Cc1oc2ncnc(NC3(C)CC3)c2c1C(=O)N1CC(c2ncc(C(F)(F)F)cc2F)C1` [Example 38, 5-{3-[3-Fluoro-5-(trifluoromethyl)pyridin-2-yl]azetidine-1-carbonyl}-6-methyl-N-(1-methylcyclopropyl)furo[2,3-d]pyrimidin-4-amine], the IC50 was 10 to 100 nM. Still for that read-out and setting: the same measure for `Cc1ncc2c(n1)CCN(C(=O)c1c(C)oc3ncnc(NC4(C)CC4)c13)C2` [Example 39, 6-Methyl-5-f{2-methyl-5H,6H,7H,8H-pyrido[4,3-d]pyrimidine-6-carbonyl}-N-(1-methylcyclopropyl)furo[2,3-d]pyrimidin-4-amine]: 10 to 100 nM. Regarding `COc1nccc2c1CCN(C(=O)c1c(C)oc3ncnc(NC4(C)CC4)c13)C2` [Example 40, 5-(5-Methoxy-1,2,3,4-tetrahydro-2,6-naphthyridine-2-carbonyl)-6-methyl-N-(1-methylcyclopropyl)furo[2,3-d]pyrimidin-4-amine], the IC50 is 10 to 100 nM.

With `COc1ncc2c(n1)CCN(C(=O)c1c(C)oc3ncnc(NC4(C)CC4)c13)C2` [Example 45, 5-{2-Methoxy-5H,6H,7H,8H-pyrido[4,3-d]pyrimidine-6-carbonyl}-6-methyl-N-(1-methylcyclopropyl)furo[2,3-d]pyrimidin-4-amine], the IC50 was 10 to 100 nM. Still for that read-out and setting: then `Cc1oc2ncnc(NC3(C)CC3)c2c1C(=O)Nc1ccc(N2CCOCC2)cn1` [Example 46, 6-Methyl-4-[(1-methylcyclopropyl)amino]-N-[5-(morpholin-4-yl)pyridin-2-yl]furo[2,3-d]pyrimidine-5-carboxamide], with 100 to 1000 nM; and `Cc1oc2ncnc(NC3(C)CC3)c2c1C(=O)NCc1ccc(F)cc1` [Example 48, N-[(4-Fluorophenyl)methyl]-6-methyl-4-[(1-methylcyclopropyl)amino]furo[2,3-d]pyrimidine-5-carboxamide], with 10 to 100 nM; and `Cc1oc2ncnc(NC3(C)CC3)c2c1C(=O)NCc1ccc(F)cn1` [Example 49, N-[(5-Fluoropyridin-2-yl)methyl]-6-methyl-4-[(1-methylcyclopropyl)amino]furo[2,3-d]pyrimidine-5-carboxamide], with 10 to 100 nM.

Regarding `Cc1oc2ncnc(NC3(C)CC3)c2c1C(=O)NCCc1ccc(F)cc1` [Example 50, N-[2-(4-Fluorophenyl)ethyl]-6-methyl-4-[(1-methylcyclopropyl)amino]furo[2,3-d]pyrimidine-5-carboxamide], the IC50 is 10 to 100 nM. Consider `Cc1oc2ncnc(NC3(C)CC3)c2c1C(=O)NCc1ccc(C#N)cc1` [Example 52, N-[(4-Cyanophenyl)methyl]-6-methyl-4-[(1-methylcyclopropyl)amino]furo[2,3-d]pyrimidine-5-carboxamide], for which the IC50 is 10 to 100 nM. Still for that read-out and setting: then `COc1cccc(CNC(=O)c2c(C)oc3ncnc(NC4(C)CC4)c23)n1` [Example 53, N-[(6-Methoxypyridin-2-yl)methyl]-6-methyl-4-[(1-methylcyclopropyl)amino]furo[2,3-d]pyrimidine-5-carboxamide], with 10 to 100 nM; and `Cc1oc2ncnc(NC3(C)CC3)c2c1C(=O)N1CCc2cc(C#N)ccc2C1` [Example 58, 2-{6-Methyl-4-[(1-methylcyclopropyl)amino]furo[2,3-d]pyrimidine-5-carbonyl}-1,2,3,4-tetrahydroisoquinoline-6-carbonitrile], with 10 to 100 nM.
